Results published in paper PMC5891061, “Electrophysiological mechanisms of vandetanib-induced cardiotoxicity: Comparison of action potentials in rabbit Purkinje fibers and pluripotent stem cell-derived cardiomyocytes” (PLoS ONE, 2018).

Key:
IhERG in hiPSC-CMs = molecular target: T1, IhERG in hiPSC-CMs (Homo sapiens, UniProt Q12809); test: IhERG current in hiPSC-CMs (voltage clamp); format: cell-based; set-up: unit not given here
T1 construct: host or cells: hiPSC-CMs (iCell Cardiomyocytes)
Procedure: The hiPSC-CMs from human fibroblast cell lines (iCell Cardiomyocytes; Cellular Dynamics International, Madison, WI, USA) were purchased and cultured for single-cell electrophysiological recordings. Frozen vials of hiPSC-CMs were thawed in a water bath maintained at 37°C and mixed with ice-cold plating medium (iCell Cardiomyocyte Plating Medium, glucose-free). The cells were transferred to four-well culture plates containing 0.1% gelatin-coated glass coverslips and then maintained in a culture incubator at 37°C in an atmosphere of 93% air and 7% CO2. After 2 days of culture, the plating medium was replaced with culture medium (iCell Cardiomyocyte Maintenance Medium, glucose-free), which was then changed every 2 days. The hiPSC-CMs were cultured for 4 weeks and used at 7 to 28 days post-thaw for electrophysiological analysis. […] The internal solution contained (in mM) 120 K-Asp, 20 KCl, 5 NaCl, 2 CaCl2, 10 HEPES, 5 EGTA, and 5 Mg-ATP (pH 7.25). We recorded typical APs in hiPSC-CMs in the current-clamp mode. The spontaneous beating activity or paced firing of single hiPSC-CMs were recorded, and only hiPSC-CMs that could beat stably were included in the analysis. Following stabilization of the AP waveforms, the average of six recorded APs for each test concentration was analyzed.
pCLAMP (Axon Instruments, Foster City, CA, USA), Origin 8 (OriginLab Corp, Northampton, MA, USA), and Excel (Microsoft, Redmond, WA, USA) were used for data acquisition and analysis. The concentration–response relationships for drug-induced blockage were calculated using SigmaPlot (Systat Software, San Jose, CA, USA). […] Data are presented as the means ± SEM, and n represents the number of experimental replicates. Statistical significance was determined using the Student’s t-test and one-way ANOVA with post hoc testing using Dunnett’s method; p < 0.05 was considered to indicate statistical significance.

hERG (IKr) = hERG (IKr) (Homo sapiens, UniProt Q12809); test: Whole-cell patch clamp, IhERG tail current in transfected HEK293 cells
Text: For various aspects of cardiac ion channel study, human embryonic kidney (HEK293; ATCC, Manassas, VA, USA) cells were transiently transfected using lipofectAmin2000 (Gibco BRL, New York, NY, USA) according to the manufacturer’s instructions. The hERG (human ether-ago-go-related gene corresponding to IKr), KCNQ1/KCNE1 (the gene corresponding to IKs), KCNJ2 (the gene corresponding to IK1) or SCN5A (the gene corresponding to INa) cDNA was co-transfected with green fluorescence protein, the surface marker protein, to allow assessment of the transfection efficiency. For the calcium current, enzymatically isolated single rat ventricular myocytes were used. Briefly, the hearts were rapidly excised from anaesthetized Sprague–Dawley rats (250–350 g) and perfused via the aorta on a Langendorff apparatus with an oxygenated normal Tyrode (NT) solution for 5 min. To clear the blood, then perfused with Ca^2+-free normal Tyrode solution for 3 min. […]
The external solution for recording the IhERG, IKs and INa channel currents was NT solution. […] The calcium current was measured in naïve rat ventricular myocytes, cells were superfused with an external solution that consisted of (in mM): 137 choline-Cl, 5 CsCl, 0.5 MgCl2, 2 4-AP, 10 HEPES, 10 glucose and 1.8 CaCl2 (pH 7.4 with NaOH), whereas the intracellular solution used to fill the pipette had the following ionic solution (in mM): 20 CsCl, 100 Cs-aspartate, 10 EGTA, 10 HEPES, 20 TEA-Cl, 5 Mg-ATP (pH 7.25 with KOH). […]
pCLAMP (Axon Instruments, Foster City, CA, USA), Origin 8 (OriginLab Corp, Northampton, MA, USA), and Excel (Microsoft, Redmond, WA, USA) were used for data acquisition and analysis. The concentration–response relationships for drug-induced blockage were calculated using SigmaPlot (Systat Software, San Jose, CA, USA). […] Statistical significance was determined using the Student’s t-test and one-way ANOVA with post hoc testing using Dunnett’s method; p < 0.05 was considered to indicate statistical significance. […]

T1 sequence (Q12809 whole entry): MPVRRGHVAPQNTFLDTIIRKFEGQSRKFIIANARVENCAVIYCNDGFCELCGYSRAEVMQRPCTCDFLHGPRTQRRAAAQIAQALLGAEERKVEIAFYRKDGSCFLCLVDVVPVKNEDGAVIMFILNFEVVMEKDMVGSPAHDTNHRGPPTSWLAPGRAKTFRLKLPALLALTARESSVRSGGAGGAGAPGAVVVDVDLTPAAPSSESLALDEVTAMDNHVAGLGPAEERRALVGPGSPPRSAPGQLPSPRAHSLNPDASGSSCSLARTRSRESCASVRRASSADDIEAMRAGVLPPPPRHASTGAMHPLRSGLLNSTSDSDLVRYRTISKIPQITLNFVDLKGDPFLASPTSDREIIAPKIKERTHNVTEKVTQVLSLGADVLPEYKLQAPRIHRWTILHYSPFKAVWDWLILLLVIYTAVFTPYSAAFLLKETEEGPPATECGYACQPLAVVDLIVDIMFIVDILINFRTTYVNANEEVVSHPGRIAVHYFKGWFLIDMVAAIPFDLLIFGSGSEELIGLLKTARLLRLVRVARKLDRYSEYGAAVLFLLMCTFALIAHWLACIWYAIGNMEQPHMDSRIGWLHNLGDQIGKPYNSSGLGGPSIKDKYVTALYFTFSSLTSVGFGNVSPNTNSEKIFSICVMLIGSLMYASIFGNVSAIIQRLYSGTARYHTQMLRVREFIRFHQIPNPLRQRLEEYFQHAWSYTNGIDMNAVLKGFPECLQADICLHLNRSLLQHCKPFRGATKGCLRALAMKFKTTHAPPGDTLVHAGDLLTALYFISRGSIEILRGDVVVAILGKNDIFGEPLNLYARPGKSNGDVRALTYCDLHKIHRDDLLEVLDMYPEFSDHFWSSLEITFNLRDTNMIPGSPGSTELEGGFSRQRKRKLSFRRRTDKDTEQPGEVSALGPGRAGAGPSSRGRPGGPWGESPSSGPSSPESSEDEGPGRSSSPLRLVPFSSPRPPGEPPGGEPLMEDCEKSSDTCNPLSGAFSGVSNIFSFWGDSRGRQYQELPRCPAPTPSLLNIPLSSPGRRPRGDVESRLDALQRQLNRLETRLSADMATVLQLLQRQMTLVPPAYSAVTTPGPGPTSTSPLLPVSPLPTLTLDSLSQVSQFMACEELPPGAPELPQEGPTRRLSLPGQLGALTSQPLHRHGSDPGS
Chain of hERG (IKr) (Q12809 whole entry, the tested form may be a part): as the sequence (Q12809 whole entry) above

COc1cc2c(Nc3ccc(Br)cc3F)ncnc2cc1OCC1CCN(C)CC1 [Vandetanib] was tested, and the IhERG current (IhERG in hiPSC-CMs; 0.1 μM) was 196.0 ± 3.2, the IhERG current (IhERG in hiPSC-CMs; 0.3 μM) was 164.9 ± 9.4 and the IhERG current (IhERG in hiPSC-CMs; 1 μM) was 92.8 ± 11.2. The IhERG current (IhERG in hiPSC-CMs; 3 μM) was 20.4 ± 4.4, the “Reduction of IhERG current amplitude” value (hERG (IKr); 0.3 μM) was 17.04% and the “Reduction of IhERG current amplitude” value (hERG (IKr); 1 μM) was 45.32%. For the same compound, the “Reduction of IhERG current amplitude” value (hERG (IKr); 3 μM) was 76.05%.
